From ChEMBL document CHEMBL1127949, “GR159897 and related analogues as highly potent, orally active non-peptide neurokinin NK2 receptor antagonists” (Bioorg Med Chem Lett, 1994) come the findings set out here.

Test [1] addresses T1, Substance-K receptor (Rattus norvegicus, UniProt P16610).
T1 sequence (P16610 whole entry): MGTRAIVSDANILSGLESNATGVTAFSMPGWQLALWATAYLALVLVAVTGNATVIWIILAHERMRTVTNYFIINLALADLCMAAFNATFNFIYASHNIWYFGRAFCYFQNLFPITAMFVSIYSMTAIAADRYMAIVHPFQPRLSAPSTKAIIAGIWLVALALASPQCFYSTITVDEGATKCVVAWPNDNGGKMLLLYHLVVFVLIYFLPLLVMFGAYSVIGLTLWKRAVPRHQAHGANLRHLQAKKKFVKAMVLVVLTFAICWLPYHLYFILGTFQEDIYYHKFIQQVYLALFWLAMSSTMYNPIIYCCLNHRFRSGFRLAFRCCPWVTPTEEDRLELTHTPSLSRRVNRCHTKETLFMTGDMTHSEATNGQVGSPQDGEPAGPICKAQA
Description: Binding affinity by displacement of radiolabeled GR-100679 from Tachykinin receptor 2 from homogenized rat colon.

Test [2] concerns the target T2, Neuromedin-K receptor (Cavia porcellus, UniProt P30098).
T2 sequence (P30098 whole entry): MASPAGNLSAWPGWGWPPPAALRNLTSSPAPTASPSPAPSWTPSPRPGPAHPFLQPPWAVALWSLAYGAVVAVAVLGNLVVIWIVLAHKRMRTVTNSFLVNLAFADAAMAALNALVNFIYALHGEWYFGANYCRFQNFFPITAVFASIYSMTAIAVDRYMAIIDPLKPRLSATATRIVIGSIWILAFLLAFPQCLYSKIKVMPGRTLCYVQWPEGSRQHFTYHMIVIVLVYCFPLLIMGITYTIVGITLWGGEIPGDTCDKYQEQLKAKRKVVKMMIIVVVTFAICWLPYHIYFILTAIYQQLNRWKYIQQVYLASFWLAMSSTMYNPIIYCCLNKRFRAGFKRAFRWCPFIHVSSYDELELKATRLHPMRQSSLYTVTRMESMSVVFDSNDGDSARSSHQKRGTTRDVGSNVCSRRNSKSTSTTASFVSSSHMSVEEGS
Description: Tested for inhibition of binding of [3H]senktide to Tachykinin receptor 3 in guinea pig cerebral cortex membranes. Type of test: tissue-based, Membrane.

For test [3], the target named is T3, Substance-K receptor (Cavia porcellus) (UniProt Q64077).
T3 sequence (whole entry): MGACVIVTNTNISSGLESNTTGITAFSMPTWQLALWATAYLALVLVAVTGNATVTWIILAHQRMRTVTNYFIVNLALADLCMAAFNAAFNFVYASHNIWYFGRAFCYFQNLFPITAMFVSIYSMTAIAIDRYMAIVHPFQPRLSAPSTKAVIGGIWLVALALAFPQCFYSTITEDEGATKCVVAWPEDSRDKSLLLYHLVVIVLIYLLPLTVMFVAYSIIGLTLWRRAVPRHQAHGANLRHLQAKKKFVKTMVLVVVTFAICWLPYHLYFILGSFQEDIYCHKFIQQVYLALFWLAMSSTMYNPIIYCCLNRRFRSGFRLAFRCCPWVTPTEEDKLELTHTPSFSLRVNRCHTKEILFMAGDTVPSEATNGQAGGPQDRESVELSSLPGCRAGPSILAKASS
Description: Binding affinity against NK2 receptor in guinea-pig trachea

Test [4] relates to Cavia porcellus. Description: In vivo ability to inhibit bronchoconstriction induced by GR-64349 (i.v.) in guinea pigs. The test is classed as functional.
Test [5] concerns the target T3, Substance-K receptor (Cavia porcellus). Nature of the test: Binding affinity against Tachykinin receptor 2 in guinea-pig trachea.
Test [6] deals with T4, Substance-K receptor (Homo sapiens, UniProt P21452).
T4 sequence (P21452 whole entry): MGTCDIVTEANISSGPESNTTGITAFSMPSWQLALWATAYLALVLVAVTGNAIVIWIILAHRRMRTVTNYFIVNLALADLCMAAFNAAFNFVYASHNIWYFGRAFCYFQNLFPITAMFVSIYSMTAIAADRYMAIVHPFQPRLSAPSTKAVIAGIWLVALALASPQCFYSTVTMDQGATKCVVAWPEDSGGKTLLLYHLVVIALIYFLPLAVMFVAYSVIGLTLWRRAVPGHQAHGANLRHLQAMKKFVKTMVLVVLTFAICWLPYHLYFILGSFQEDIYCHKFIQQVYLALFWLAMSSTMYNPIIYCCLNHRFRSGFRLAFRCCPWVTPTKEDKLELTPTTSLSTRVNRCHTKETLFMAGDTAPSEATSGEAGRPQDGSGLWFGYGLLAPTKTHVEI
Nature of the test: Binding affinity against Tachykinin receptor 2 of human expressed in chinese hamster ovary cells. Type of test: cell-based, CHO.

Take `Cc1ccccc1OCC1(O)CCN(CCc2c[nH]c3ccc(F)cc23)CC1`: the Ki in test [1] is 0.0316 µM.
Take `[O-][S@+](CC1(O)CCN(CCc2c[nH]c3ccc(F)cc23)CC1)c1ccccc1` (stereo in doubt; 8) [listing 1 of 2 here]: the Ki in test [2] was 39.8 µM; in test [1], 0.000316 µM.
On to `N#Cc1ccc2[nH]cc(CCN3CCC(NC(=O)c4ccccc4)CC3)c2c1`, for which, in test [1], the Ki is 1.58 µM.
As to `O=S(=O)(CC1(O)CCN(CCc2c[nH]c3ccc(F)cc23)CC1)c1ccccc1`, the Ki in test [1] is 0.0316 µM.
Same read-out and setting: the same measure for `[O-][S+](CC1(O)CCN(CCc2c[nH]c3ccc(F)cc23)CC1)c1ccccc1` (stereo in doubt; 9) [4-BENZENESULFINYLMETHYL-1-[2-(5-FLUORO-1H-INDOL-3-YL)-ETHYL]-PIPERIDIN-4-OL (STRUCTURAL MIX)]: 0.00794 µM.
Regarding `[O-][S@+](CC1(O)CCN(CCc2c[nH]c3ccc(F)cc23)CC1)c1ccccc1` (stereo in doubt; 8) [listing 2 of 2 here], the pKB in test [3] worked out at 8.7.
`COC1(C[S@@+]([O-])c2ccccc2)CCN(CCc2c[nH]c3ccc(F)cc23)CC1` showed a Dose in test [4] of 3 µM/kg. The pKB in test [5] was determined as 9.7. Further, the Ki in test [6] is 0.000316 µM; in test [2], 20 µM; in test [1], 0.0001 µM.
`Cc1ccccc1OCC(O)CNCCc1c[nH]c2ccc(F)cc12` (stereo unspecified) had a Ki in test [1] of 1 µM.
Compound `[O-][S@+](CC1(O)CCN(CCc2c[nH]c3ccc(F)cc23)CC1)c1ccccc1` (stereo in doubt; 5) displayed a Dose in test [4] of 3 µM/kg. Besides, in test [1], the inhibition constant Ki is 0.00398 µM.
Turning to `[O-][S+](CC1(O)CCN(CCc2c[nH]c3ccc(F)cc23)CC1)c1ccccc1` (stereo in doubt; 6) [4-BENZENESULFINYLMETHYL-1-[2-(5-FLUORO-1H-INDOL-3-YL)-ETHYL]-PIPERIDIN-4-OL (STRUCTURAL MIX)], the inhibitory constant (Ki) in test [1] was 0.000501 µM.

By Ki is commonly meant a dissociation constant, usually derived from enzyme kinetics or from competition with a known ligand. A higher Ki goes with lower affinity. The pKB is −log10 of the KB, conventionally taken in molar units. Read a high pKB as a small KB.
